According to patent US8106111B2, “Antimicrobial effect of cycloaliphatic diol antimicrobial agents in coating compositions” (Eastman Chemical Company, priority 2009, dated 2012):

Columns and labels:
[1] = system: challenge organisms (SRB isolate, B. subtilis, A. niger, C. albicans, P. aeruginosa/C. albicans); test: Latex dispersion challenge test, summary over the challenge organisms; assay type: cell-based; conditions: acrylic latex dispersion, additive alone; challenge organisms other than SRB
Procedure: A test of the antimicrobial efficacy of 1,4-CHDM was performed in a latex dispersion. Test procedures were generally conducted according to those of ASTM D2574-06: Standard Test Method for Resistance of Emulsion Latexes in the Container to Attack by Microorganisms.
An antimicrobial agent-free, acrylic latex dispersion with pH of 7.2, viscosity of 200 cps, and solids content of 49.8% was used as the substrate for microbial challenge testing.
Aliquots of the latex dispersion were distributed in sterile plastic tubes. The volume of latex added was adjusted such that the volume of additives plus the volume of latex would equal 25 mL to produce latex test samples.
The concentration of the additives was adjusted to allow for a final volume of 28 mL per tube after addition of the latex stock cultures discussed in Example 1. All tubes were mixed for 10 minutes on a mechanical shaker set to 75 shakes per minute, and then left stationary at ambient temperature for a minimum of 48 hours.
The bacteria (sulfate-reducing bacteria isolate, Bacillus subtilis, and Pseudomonas aeruginosa), yeast (Candida albicans), and fungi (Aspergillus niger) in Table 6 were used as challenge organisms for testing the antimicrobial efficacy of the test latex samples. Each organism was isolated from previous naturally contaminated samples of paint, latex, or adhesive.
(§1) Bacterial cultures were grown at 35° C.±2° C. for a minimum of 96 hours in liquid media. SRB was grown in a thioglycolate broth. All other bacteria and C. albicans were grown in a Trypticase Soy broth with 1% dextrose. C. albicans cultures were grown at 22° C.±2° C. for a minimum of 96 hours. A. niger was grown on the Sabouraud Dextrose Agar and in the Trypticase Soy broth with 1% dextrose at 22° C. for 7 to 14 days or until full sporulation (in the case of the agar culture) was achieved. Spores from the plate culture of A. niger were dislodged by rubbing the growth gently with a sterile inoculating loop or removing it with a sterile glass impinger. The spores were added into the broth culture, and then the mixture was filtered through sterile nonabsorbent cotton and adjusted to a spore level of 1.0×10^8 using a hemocytometer.
Challenge organisms were initially acclimated to the latex without antimicrobial additives by adding 10% by volume of individual broth culture to latex to yield final concentrations of 10^6-10^7 cfu/mL for each bacterial culture to produce latex stock cultures. The A. niger and C. albicans cultures (or suspension) were first poured through nonabsorbent sterile gauze to remove aggregates then centrifuged. The solids were re-suspended to the desired concentration in latex by estimating the concentration using a hemocytometer. The P. aeruginosa and C. albicans isolates were originally found as a mixed culture in a contaminated product. A mixed latex stock culture containing P. aeruginosa and C. albicans was prepared by adding a portion of the contaminated product to the latex without antimicrobial additives. The latex stock culture samples were incubated at 35° C.±2° C. for bacteria and at 22° C.±2° C. for A. niger and C. albicans. To determine challenge organism concentration, samples of the latex stock cultures were dilution-plated, or for SRB, evaluated using the BACTI-BOTTLE method, as described below.
To the latex test samples, 3 mL of each latex stock culture (diluted as necessary) was added to produce a theoretical 1.0×10^5 to 1.0×10^6 cfu/mL total concentration to yield inoculated latex samples. […]

[2] = Solubility in aqueous growth media; assay type: physicochemical
Procedure: Stock solutions were prepared for each isomer in the corresponding growth media at a concentration of 5% w/v (1,4-CHDM) or 2.25% w/v (1,1-CHDM). Serial dilutions were prepared with a dilution ratio of 1:1.3333 such that one log range was covered with nine dilutions.
Final results have been summarized below in Table 9.

[3] = system: challenge organisms (E. coli, Aeromonas sp., SRB isolate, B. subtilis, P. vulgaris, A. niger, C. albicans); test: Paint challenge test, summary over the challenge organisms; assay type: cell-based; conditions: additive alone at 0.5-5%, all seven challenge organisms
Procedure: A test of the antimicrobial efficacy of 1,4-CHDM was performed in a paint. Test procedures were generally performed according to those of ASTM D2574-06: Standard Test Method for Resistance of Emulsion Paints in the Container to Attack by Microorganisms.
The paint used for testing was a commercial water-based, interior latex flat wall paint purchased from Wal-Mart. The trade name for the paint was Quik Hide. The color was Off White 26905. A five gallon (18.9 L) container was purchased. The VOC (volatile organic compound) content was listed as <100 g/L (0.8 lbs/gal).
Aliquots of uninoculated paint were distributed in sterile plastic tubes. The volume of paint added was adjusted such that the volume of additives plus the volume of paint would equal 25 mL. […] The percentages shown in Table 2 are weight percentages.
The concentration of the additives in the paint was adjusted to allow for a final volume of 28 mL per tube after addition of inoculum. All tubes were mixed for 10 minutes on a mechanical shaker set to 75 shakes per minute, and then left stationary at ambient temperature for a minimum of 48 hours.
The bacteria (first five in list), yeast (C. albicans) and fungi (A. niger) in Table 3 were used as challenge organisms for testing the antimicrobial efficacy of the additives contained in the test paint samples. Each organism was isolated from previous naturally contaminated samples of paint, latex, or adhesive. The concentration of each organism (colony-forming unit/gram (cfu/g)) in the test paint samples added as inoculum is also given in Table 3.
as §1, with “Agar (SDA)” for “Agar”
Challenge organisms were initially acclimated to the paint without additives by adding 10% by volume of individual broth culture to the paint to yield final concentrations of 10^6-10^7 cfu/mL for each bacterial culture to produce paint stock cultures. The A. niger and C. albicans cultures (or suspension) were first poured through nonabsorbent sterile gauze to remove aggregates, then centrifuged. […]

| Compound | efficacy against challenge organisms in latex [1] | solubility [2] | killing of challenge organisms in paint [3] |
| --- | --- | --- | --- |
| Cn1sccc1=O [MIT, methylisothiazolinone] | highly efficacious |  |  |
| OCC1(CO)CCCCC1 [1,1-CHDM, 1,1-cyclohexanedimethanol] |  | 2.25 % (w/v) |  |
| CCCCNC(=O)OCC#CI [IPBC, 3-iodo-2-propanyl-n-butylcarbamate] | not found to be efficacious |  |  |
| OCC1CCC(CO)CC1 (stereo not shown) [1,4-CHDM, 1,4-cyclohexanedimethanol] | significant or complete killing of each challenge organism except SRB |  | significant or complete killing of each challenge organism |
| O=c1[nH]sc2ccccc12 [BIT, benzisothiazolinone] | highly efficacious |  |  |
| CC(O)CO (stereo not shown) [PG, propylene glycol] | some ability to inhibit and kill the challenge organisms |  | little benefit and no observable dose response |
| OCC1CCCC(CO)C1 (stereo not shown) [1,3-CHDM] |  |  | little benefit and no observable dose response |
| CC1(C)C(O)C(C)(C)C1O (stereo not shown) [TMCD, 2,2,4,4-tetramethyl-1,3-cyclobutanediol] |  |  | killed all challenge organisms at the highest level tested |
